Results on 2 substances are retold here after publication PMC5826244 (OncoTargets and therapy, 2018).

In test [1] the test system is LH-RH-I receptors expressed in rat pituitaries. Conditions: cited from earlier work.
Test [2] addresses T1, LH-RH-I receptors, membranes of human UM models (Homo sapiens, UniProt P30968).
T1 sequence (P30968 1-328): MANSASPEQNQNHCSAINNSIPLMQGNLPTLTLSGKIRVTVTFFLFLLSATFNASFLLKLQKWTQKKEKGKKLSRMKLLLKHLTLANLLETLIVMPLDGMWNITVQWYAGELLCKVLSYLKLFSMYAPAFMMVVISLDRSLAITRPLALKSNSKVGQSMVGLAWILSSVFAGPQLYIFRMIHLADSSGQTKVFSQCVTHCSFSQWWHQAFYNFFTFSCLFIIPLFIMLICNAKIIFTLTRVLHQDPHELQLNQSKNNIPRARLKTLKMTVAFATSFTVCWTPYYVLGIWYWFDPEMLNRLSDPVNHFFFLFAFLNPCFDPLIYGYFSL
Put plainly: Radioligand binding / ligand competition, human UM samples. Conditions: increasing concentrations 10^−12–10^−6 M; data not shown.

With [^125I][D-Trp[6]]LH-RH, the “binding affinity to LH-RH-I receptors” value in test [1] is on record as “high affinity binding”.

As for buserelin, the “displacement of radiolabeled [D-Trp6]LH-RH binding” value in test [2] was “completely displaced”.
